Measured values published in article PMC10518020, “Structure of the peroxisomal Pex1/Pex6 ATPase complex bound to a substrate” (Nature Communications, 2023).

Biological target: T1, Pex1/Pex6_WB (Pex1-Strep2/His-Pex6(E832Q)) heterohexamer (Saccharomyces cerevisiae, UniProt P24004+P33760, P33760:E832Q)
T1 construct: full-length Pex1 with C-terminal Strep2 tag and Pex6(E832Q, D2 Walker B) with N-terminal His tag, co-expressed in S. cerevisiae MH 272/3f alpha; heterohexamer of alternating Pex1 and Pex6 (trimer of dimers); endogenous peptide trapped in D2 pore
T1 sequence (P24004 1-1043): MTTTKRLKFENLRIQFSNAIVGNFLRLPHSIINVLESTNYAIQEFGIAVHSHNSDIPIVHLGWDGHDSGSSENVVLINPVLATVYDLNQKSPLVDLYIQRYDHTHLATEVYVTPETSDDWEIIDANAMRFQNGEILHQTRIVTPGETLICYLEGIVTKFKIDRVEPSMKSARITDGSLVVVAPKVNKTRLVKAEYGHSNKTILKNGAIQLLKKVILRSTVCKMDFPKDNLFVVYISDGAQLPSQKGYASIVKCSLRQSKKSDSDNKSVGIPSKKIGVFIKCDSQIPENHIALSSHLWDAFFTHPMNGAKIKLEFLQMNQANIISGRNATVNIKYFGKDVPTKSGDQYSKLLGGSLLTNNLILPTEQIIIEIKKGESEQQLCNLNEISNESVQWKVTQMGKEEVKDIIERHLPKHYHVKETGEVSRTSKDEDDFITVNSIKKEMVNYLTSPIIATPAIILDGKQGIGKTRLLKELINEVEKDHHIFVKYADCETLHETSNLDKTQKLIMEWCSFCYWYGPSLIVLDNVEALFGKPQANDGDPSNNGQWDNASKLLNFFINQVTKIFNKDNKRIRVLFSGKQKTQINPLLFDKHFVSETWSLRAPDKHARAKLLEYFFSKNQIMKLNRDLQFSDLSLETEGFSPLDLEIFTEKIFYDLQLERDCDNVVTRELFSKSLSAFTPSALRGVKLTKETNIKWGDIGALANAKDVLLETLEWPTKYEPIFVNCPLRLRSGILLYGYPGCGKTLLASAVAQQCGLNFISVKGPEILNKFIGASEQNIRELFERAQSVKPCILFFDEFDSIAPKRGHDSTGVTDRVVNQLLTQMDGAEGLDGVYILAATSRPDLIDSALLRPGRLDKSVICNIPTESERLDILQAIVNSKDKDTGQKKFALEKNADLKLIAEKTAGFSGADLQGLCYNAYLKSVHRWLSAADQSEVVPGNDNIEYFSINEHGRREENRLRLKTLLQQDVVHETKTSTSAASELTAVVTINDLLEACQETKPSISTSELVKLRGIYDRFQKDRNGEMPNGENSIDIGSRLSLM
T1 sequence (P33760 1-1030 E832Q): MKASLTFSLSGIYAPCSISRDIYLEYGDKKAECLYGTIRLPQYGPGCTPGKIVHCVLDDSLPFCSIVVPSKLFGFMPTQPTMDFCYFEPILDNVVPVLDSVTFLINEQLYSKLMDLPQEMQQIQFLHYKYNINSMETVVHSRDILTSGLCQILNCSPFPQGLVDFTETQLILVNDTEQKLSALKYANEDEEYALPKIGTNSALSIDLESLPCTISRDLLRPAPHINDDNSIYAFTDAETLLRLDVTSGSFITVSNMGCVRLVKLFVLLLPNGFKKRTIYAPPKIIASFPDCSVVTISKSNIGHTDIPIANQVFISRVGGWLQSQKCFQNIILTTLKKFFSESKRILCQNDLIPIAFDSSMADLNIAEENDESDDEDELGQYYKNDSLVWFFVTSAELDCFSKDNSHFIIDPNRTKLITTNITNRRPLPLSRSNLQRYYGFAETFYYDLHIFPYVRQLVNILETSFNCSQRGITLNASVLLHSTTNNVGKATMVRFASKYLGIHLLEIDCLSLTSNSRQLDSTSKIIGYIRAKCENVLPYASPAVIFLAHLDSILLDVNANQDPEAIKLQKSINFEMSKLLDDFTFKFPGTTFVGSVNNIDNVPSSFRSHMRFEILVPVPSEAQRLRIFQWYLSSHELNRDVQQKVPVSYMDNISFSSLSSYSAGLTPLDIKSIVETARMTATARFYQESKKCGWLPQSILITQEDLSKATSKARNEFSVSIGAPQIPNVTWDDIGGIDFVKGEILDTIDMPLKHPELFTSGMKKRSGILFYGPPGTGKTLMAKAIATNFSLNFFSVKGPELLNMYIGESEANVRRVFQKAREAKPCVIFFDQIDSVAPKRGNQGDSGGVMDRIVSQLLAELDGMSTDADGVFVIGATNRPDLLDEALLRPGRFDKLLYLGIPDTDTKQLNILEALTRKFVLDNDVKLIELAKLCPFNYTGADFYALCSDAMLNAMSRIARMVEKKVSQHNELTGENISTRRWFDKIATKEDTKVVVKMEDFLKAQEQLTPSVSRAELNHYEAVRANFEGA
Experiment: cryo-EM structure
Format: binding

Structure (SMILES)	cryo-EM structure (D2 sites of bottom and seam subunits, nucleotide assigned from density and pocket opening, not with absolute confidence, no ADP added (ATP in purification))	cryo-EM structure (Mg2+, 1-3 mM ATP in purification, bound at all six D1 sites (not hydrolysed) and at D2 sites of the substrate-engaged subunits, single-seam 8C0V and twin-seam 8C0W)
Nc1ncnc2c1ncn2[C@@H]1O[C@H](COP(=O)(O)OP(=O)(O)O)[C@@H](O)[C@H]1O [ADP]	D2 domains are indeed in an ADP-bound state	–
Nc1ncnc2c1ncn2[C@@H]1O[C@H](COP(=O)(O)OP(=O)(O)OP(=O)(O)O)[C@@H](O)[C@H]1O [ATP]	–	all ATPase domains of the D1 ring are bound to ATP
